Experimental data as given in patent EP4725508A1, “LIGAND-DRUG CONJUGATE HAVING FREE PAYLOAD RECOVERY UNIT” (RemeGen Co., Ltd., priority 2024, dated 2025).
“Also recorded” adds a separate entry of the source. Ends that are not written are not given here.

Experiments:
BSA-MMAF [1] = assay: Peptide competitive ELISA; assay type: binding; settings: peptide 2000 nM, truncated free MMAE or null-ADC from 1000 nM (FIG. 35)
Procedure: • (1) Antigen coating: BSA-MMAF was coated onto a microplate using coating buffer at a concentration of […], and placed at 4°C overnight for about 16 h. (2) Blocking: The microplate coated with antigen was washed once with PBST using a plate washer, and blocked by adding Casein solution at 200 µL/well at room temperature for 1 h. (3) Primary antibody incubation: The plate was washed 3 times with PBST, and a premixture of peptide sample diluted with Casein solution and truncated free MMAE/null-ADC was added. The final concentration of the peptide sample was 2000 nM. […] The positive control was molecule ABC3320 with a final concentration of 1.28 nM. Incubation was performed at room temperature for 2 h. (4) Secondary antibody incubation: The plate was washed 3 times with PBST, and secondary antibody Goat pAb to Hu IgG(HRP) (1:10000) diluted with Casein solution was added and incubated at room temperature for 1 h. (5) Color development: The plate was washed 6 times with PBST, 100 µL of TMB color development solution was added to each well, and color was developed for 2 to 10 min protected from light. (6) Termination: 100 µL of 2 M H2SO4 was added to each well to terminate the reaction. The OD450 value was read using a microplate reader, recorded, and saved. Finally, the data were analyzed using GraphPad software.

OVA-MMAF = assay: Peptide ELISA binding experiment (Fc fusion peptides); settings: antigens coated 1 µg/mL, peptide from 2000 nM (FIG. 34)
Procedure: The constructed Fc fusion peptide molecules PP-1A-#84 to #95 were used for identification of binding specificity to OVA-MMAF and OVA, to determine molecules with better specific binding activity to MMAE. […] Table 20. Amino acid sequence listing of PP-1A-#85 (peptide) to PP-1A-#94 (peptide) and PP-1A-#85 (Fc fusion peptide)
• (1) Antigen coating: MMAF conjugated protein and negative protein were coated onto a microplate using coating buffer at a concentration of 1 µg/mL, and the plate was placed at 4°C overnight for about 16 h. (2) Blocking: The plate coated with antigen was washed once with PBST using a plate washer, and blocked by adding Casein solution at 200 µL/well at room temperature for 1 h. (3) Primary antibody incubation: The plate was washed 3 times with PBST, and peptide samples with an initial concentration of 2000 nM diluted in a 5-fold gradient using Casein solution were added. The negative control was the Fc.uIgG1 molecule. Incubation was performed at room temperature for 2 h. (4) Secondary antibody incubation: The plate was washed 3 times with PBST, and secondary antibody Goat pAb to Hu IgG(HRP) (1:10000) (Abcam, Cat. Ab97225) diluted with Casein solution was added and incubated at room temperature for 1 h. (5) Color development: The plate was washed 6 times with PBST, 100 µL of TMB color development solution was added to each well, and color was developed for 2 to 10 min protected from light. (6) Termination: 100 µL of 2 M H2SO4 was added to each well to terminate the reaction. The OD450 value was read using a microplate reader, recorded, and saved. Finally, the data were analyzed using GraphPad software.

OVA-DXD = assay: Dot blot screening for DXD specific binding peptides; settings: OVA or OVA-DXD 20 µg/mL spotted (FIG. 40)
Procedure: Sample preparation: 50 mL of bacterial liquid induced with IPTG overnight (16°C, 16 h) was collected by centrifugation at 5000 rpm for 5 min, and the supernatant was discarded. 7 mL of PBS was added to resuspend the bacterial pellet, and it was disrupted at 200 W for 5 min. It was centrifuged at 12,000 rpm for 20 min, and the supernatant was collected for later use. Spotting: A nylon membrane (Beyotime, CAT#FFN10) was cut to an appropriate size and marked with lines. 3 µL of antigen sample (OVA or OVA-DXD, 20 µg/mL) was spotted onto the membrane using a pipette. The consistency of the spotted volume and the spacing between spots were carefully dealt with to avoid mutual interference between samples. After spotting, the membrane was allowed to dry naturally at room temperature. Blocking: The dried membrane was placed in a blocking solution (5% skim milk) and blocked on a shaker at room temperature for 1 to 2 h. The purpose of blocking was to prevent non-specific binding and reduce background signals. Washing: After incubation of the primary antibody, the membrane was thoroughly washed with washing buffer (PBST) 3 times for 5 min each time to remove unbound primary antibody. Secondary antibody incubation: The membrane was placed in a solution containing appropriately diluted secondary antibody and incubated at room temperature for 1 to 2 h. The secondary antibody was an antibody against the primary antibody, usually carrying a detectable label such as horseradish peroxidase (HRP) or alkaline phosphatase (AP). Washing: The membrane was washed again with washing buffer to remove unbound secondary antibody, 3 times for 5 min each time. Color development: An appropriate amount of ECL color development substrate solution was applied to the membrane, and the reaction was performed at room temperature protected from light. The color development was observed using a gel imager, and the membrane was photographed and recorded. Through observing the presence or absence and the color depth of the spots, the target protein in the sample can be qualitatively or semi-quantitatively analyzed.

NCI-H292 tumor cells = assay: Inhibitory effect of DXD-binding peptides on DXD cytotoxicity; assay type: cell-based; settings: DXD 1 ng/mL, peptides from 100 µg/mL, 3 days (FIG. 41)
Procedure: NCI-H292 tumor cells were used to detect the inhibitory effect of DXD-binding peptides on DXD cytotoxicity.
NCI-H292 cells were digested, counted, and plated at 5E3 cells/well, with 60 µL per well, and allowed to adhere in a 37°C incubator. Peptide molecules and nonsense control antibody Null IgG were 2-fold diluted for 7 gradients starting at a concentration of 100 µg/mL The DXD concentration was fixed to 1 ng/mL. The test substances were incubated with DXD at room temperature for 2 h. The incubated samples were added into the 96-well plate at 60 µL/well and cultured in a 37°C incubator for 3 days. 100 µL of Cell Counting-Lite 2.0 Reagent was added to each well, and the plate was shaken on a shaker for 10 min. The fluorescence signal was read using a microplate reader.

Nectin-4 = Nectin-4 (UniProt Q96NY8); assay: binding assay read as OD450; method not described
BSA-MMAF [2] = assay: Peptide competitive ELISA (PP-1B-#74); assay type: binding; settings: FIG. 43
Procedure: Based on the peptide molecule binding activity results, molecule PP-1B-#74 was further verified for its specific binding to MMAE through competitive experiments.
• (1) Antigen coating: BSA-MMAF was coated onto a microplate using coating buffer at a concentration of 1 µg/mL, and the plate was placed at 4°C overnight for about 16 h. (2) Blocking: The microplate coated with antigen was washed once with PBST using a plate washer, and blocked by adding Casein solution at 200 µL/well at room temperature for 1 h. (3) Primary antibody incubation: The plate was washed 3 times with PBST, and a premixture of peptide sample diluted with Casein solution and truncated free MMAE/null-ADC was added. The final concentration of the peptide sample was 2000 nM. The initial concentration of truncated free MMAE and null-ADC was 1000 nM, diluted in a 10-fold gradient, and incubation was performed at room temperature for 2 h. (4) Secondary antibody incubation: The plate was washed 3 times with PBST, and secondary antibody Goat pAb to Hu IgG(HRP) (1:10000) diluted with Casein solution was added and the plate was incubated at room temperature for 1 h. […] Termination: 100 µL of 2 M H2SO4 was added to each well to terminate the reaction, and the OD450 value was read using a microplate reader, recorded, and saved. (6) Finally, the data were analyzed using GraphPad software.

OVA-MMAF and BSA-MMAF = assay: Peptide ELISA binding experiment (PP-1B Fc fusion peptides); settings: FIG. 42
Procedure: The binding of the constructed Fc fusion peptide molecules PP-1B-#70 to #74 with OVA-MMAF and OVA was identified respectively to screen for molecules with better specific binding specificity to MMAE. After the first round of primary screening was completed, the binding specificity of #74 with OVA-MMAF and BSA-MMAF was further verified.
• (1) Antigen coating: MMAF conjugated protein and negative protein were coated onto a microplate using coating buffer at a concentration of 1 µg/mL, and the plate was placed at 4°C overnight for about 16 h. (2) Blocking: The microplate coated with antigen was washed once with PBST using a plate washer, and blocked by adding Casein solution at 200 µL/well at room temperature for 1 h. (3) Primary antibody incubation: The plate was washed 3 times with PBST, and peptide samples with an initial concentration of 2000 nM diluted in a 5-fold gradient using Casein solution were added and the plate incubated at room temperature for 2 h. (4) Secondary antibody incubation: The plate was washed 3 times with PBST, and secondary antibody Goat pAb to Hu IgG(HRP) (1:10000) (Abcam, Cat. Ab97225) diluted with Casein solution was added and the plate was incubated at room temperature for 1 h. […] The OD450 value was read using a microplate reader, recorded, and saved. Finally, the data were analyzed using GraphPad software.

Sequence of Nectin-4 (Q96NY8 32-349 limits assumed): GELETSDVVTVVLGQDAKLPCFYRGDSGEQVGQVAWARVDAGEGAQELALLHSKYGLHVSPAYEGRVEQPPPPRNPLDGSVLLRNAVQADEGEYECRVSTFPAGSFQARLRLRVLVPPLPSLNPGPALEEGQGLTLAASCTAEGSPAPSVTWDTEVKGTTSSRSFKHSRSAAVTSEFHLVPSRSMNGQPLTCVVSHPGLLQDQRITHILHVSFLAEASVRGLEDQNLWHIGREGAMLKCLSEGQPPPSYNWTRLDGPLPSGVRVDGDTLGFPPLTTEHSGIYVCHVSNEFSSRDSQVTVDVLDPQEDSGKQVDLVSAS

| Substance | specific binding to OVA-MMAF and OVA (OVA-MMAF) | specific binding to DXD (dot blot) (OVA-DXD) | other results |
| --- | --- | --- | --- |
| ACDESHGVPHTSGMC [PP-1A-#85] | good binding activity to OVA-MMAF and did not bind to OVA | – | competitive binding of free MMAE (BSA-MMAF [1]): blocked by truncated free MMAE, but not blocked by null-ADC |
| ACGSLSWRNCGSYRC [PP-1A-#417] | – | capable of specifically binding to DXD | cytoprotective effect (NCI-H292 tumor cells): exhibited a cytoprotective effect |
| ACHWNAKADYGSFVC (cysteine pairing not given here; also: Fc fusion) [PP-1A-#91] | specific binding to OVA-MMAF, but the binding activity was relatively weak | – | – |
| ACLACWTSRSC [PP-1A-#414] | – | capable of specifically binding to DXD | cytoprotective effect (NCI-H292 tumor cells): exhibited a cytoprotective effect; also recorded: had the best activity |
| ACLPNSLGPSAMSSC [PP-1A-#86] | good binding activity to OVA-MMAF and did not bind to OVA | – | – |
| ACLRNSPRKQC (cysteine pairing not given here; also: Fc fusion) [PP-1A-#90] | specific binding to OVA-MMAF, but the binding activity was relatively weak | – | – |
| ACLSPWLFFWC [PP-1A-#415] | – | capable of specifically binding to DXD | cytoprotective effect (NCI-H292 tumor cells): exhibited a cytoprotective effect |
| ACRLTGPDWLHTQRC (cysteine pairing not given here; also: Fc fusion) [PP-1A-#88] | specific binding to OVA-MMAF, but the binding activity was relatively weak | – | – |
| ACSQCVLLPPPQSVC [PP-1A-#431] | – | capable of specifically binding to DXD | – |
| ACTGCSRTHSPRSRC (cysteine pairing not given here; also: Fc fusion) [PP-1A-#92] | specific binding to OVA-MMAF, but the binding activity was relatively weak | – | – |
| ACTPALRSLAC (cysteine pairing not given here; also: Fc fusion) [PP-1A-#89] | good binding activity to OVA-MMAF and did not bind to OVA | – | – |
| ACVLSPHPQAC [PP-1A-#93] | good binding activity to OVA-MMAF and did not bind to OVA | – | competitive binding of free MMAE (BSA-MMAF [1]): blocked by truncated free MMAE, but not blocked by null-ADC |
| ACWTLWLPLLPLGSC [PP-1A-#428] | – | capable of specifically binding to DXD | – |
| ACYPFGNPRGVRPSC [PP-1A-#426] | – | capable of specifically binding to DXD | – |
| AHNVEILPPFDYTLS [PP-1A-#358] | – | capable of specifically binding to DXD | – |
| APPTFPVSTSVVISR [PP-1A-#367] | – | capable of specifically binding to DXD | – |
| Enfortumab vedotin (in-house) (antibody) | – | – | Top OD450 (Nectin-4): 1.23 OD450 |
| ILTTVNVVPNTIHVR [PP-1A-#340] | – | capable of specifically binding to DXD | cytoprotective effect (NCI-H292 tumor cells): exhibited a cytoprotective effect |
| LTVAMITTSRITTSN [PP-1A-#362] | – | capable of specifically binding to DXD | – |
| VALTWYYPIYLFATR [PP-1A-#330] | – | capable of specifically binding to DXD | – |
| YYVAWRW [PP-1B-#74] | – | – | specific binding to MMAE (competitive ELISA) (BSA-MMAF [2]): able to specifically bind to MMAE; specific binding to OVA-MMAF and BSA-MMAF (OVA-MMAF and BSA-MMAF): able to specifically bind to OVA-MMAF and BSA-MMAF |
| hIgG1 (antibody) | – | – | Top OD450 (Nectin-4): 0 OD450 |
